Results published in patent US20190270733A1, “Quinoline and Isoquinoline Based HDAC Inhibitors and Methods of Use Thereof” (Reaction Biology Corp., priority 2018, published 2019).

Tests used:
Recombinant human HDAC6 = molecular target: T1, Recombinant human HDAC6 (Homo sapiens, UniProt Q9UBN7); assay: Biochemical HDAC assay, HDAC6; conditions: incubation time 10 min
T1 construct: full-length, MW=180 kDa; GST tag (N); made in house; host or cells: Sf9 insect cells (baculovirus)
T1 sequence (Q9UBN7 1-1215): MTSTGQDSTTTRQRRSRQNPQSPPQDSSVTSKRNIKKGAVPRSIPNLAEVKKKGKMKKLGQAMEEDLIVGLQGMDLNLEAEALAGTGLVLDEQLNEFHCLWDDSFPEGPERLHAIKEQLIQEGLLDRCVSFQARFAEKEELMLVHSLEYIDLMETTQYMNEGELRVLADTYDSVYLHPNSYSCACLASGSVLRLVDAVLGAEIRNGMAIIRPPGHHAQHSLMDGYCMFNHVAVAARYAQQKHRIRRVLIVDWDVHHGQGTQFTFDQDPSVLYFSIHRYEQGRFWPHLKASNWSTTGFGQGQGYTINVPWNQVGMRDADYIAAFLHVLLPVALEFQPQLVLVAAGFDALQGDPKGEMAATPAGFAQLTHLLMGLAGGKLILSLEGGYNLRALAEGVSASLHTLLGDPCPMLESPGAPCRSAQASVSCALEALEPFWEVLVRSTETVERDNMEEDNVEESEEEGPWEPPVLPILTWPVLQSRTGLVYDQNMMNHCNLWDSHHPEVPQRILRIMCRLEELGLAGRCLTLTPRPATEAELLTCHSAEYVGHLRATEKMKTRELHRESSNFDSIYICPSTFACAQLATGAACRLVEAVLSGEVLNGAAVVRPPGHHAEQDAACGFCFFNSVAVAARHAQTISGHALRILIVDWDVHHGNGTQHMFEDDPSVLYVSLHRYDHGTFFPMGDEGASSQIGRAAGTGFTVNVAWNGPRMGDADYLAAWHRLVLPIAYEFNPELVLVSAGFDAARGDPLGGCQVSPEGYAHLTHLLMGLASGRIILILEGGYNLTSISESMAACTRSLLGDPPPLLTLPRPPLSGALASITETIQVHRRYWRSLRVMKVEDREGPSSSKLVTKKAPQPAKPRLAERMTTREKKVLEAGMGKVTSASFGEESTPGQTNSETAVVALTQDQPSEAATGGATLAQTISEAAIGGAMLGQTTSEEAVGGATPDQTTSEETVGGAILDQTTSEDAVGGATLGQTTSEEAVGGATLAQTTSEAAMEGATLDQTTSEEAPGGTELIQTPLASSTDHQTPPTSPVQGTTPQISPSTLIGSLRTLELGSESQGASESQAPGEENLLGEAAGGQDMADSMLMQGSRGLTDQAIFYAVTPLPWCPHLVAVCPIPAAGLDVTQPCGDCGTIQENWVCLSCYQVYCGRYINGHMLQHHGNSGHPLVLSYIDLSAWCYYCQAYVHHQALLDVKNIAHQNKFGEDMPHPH
Method: Recombinant human HDAC6 (GenBank Accession No. BC069243), full-length, MW=180 kDa, was expressed by baculovirus in Sf9 insect cells using an N-terminal GST tag.
(§1) • I. Compound handling: Testing compounds were dissolved in 100% DMSO to a specific concentration. The serial dilution was conducted by epMotion 5070 in DMSO. • II. HDAC reaction buffer: 50 mM Tris-HCl, pH8.0, 137 mM NaCl, 2.7 mM KCl, and 1 mM MgCl2, Added fresh: 1 mg/ml BSA, 1% DMSO. • III. Substrate: Fluorogenic HDAC General Substrate for HDAC1, 2, 3, 6, 10, 11 ans Sirt1, 2 and 3: Arg-His-Lys-Lys(Ac); HDAC8 only substrate: Arg-His-Lys(Ac)-Lys(Ac); Class2A Substrate (HDAC4, 5, 7 and 9): Acetyl-Lys(trifluoroacetyl)-AMC; Sirt5 substrate: Ac-Lys(succinyl)-AMC. • IV. General Reaction Procedure: (Standard IC50 determination) • a. Delivered 2× enzyme in wells of reaction plate except No Enzyme (No En) control wells. Add buffer in No En wells. • b. Delivered compounds in 100% DMSO into the enzyme mixture by Acoustic technology (Echo550; nanoliter range). Spin down and pre-incubation. • c. Delivered 2× Substrate Mixture (Fluorogenic HDAC Substrate and co-factor (500 μM of Nicotinamide adenine dinucleotide (NAD^+) in all Sirt assay) in all reaction wells to initiate the reaction. Spin and shake. • d. Incubated for 1-2 hr. at 30° C. with seal. • e. Added Developer with Trichostatin A (or TMP269 or NAD^+) to stop the reaction and to generate fluorescent color. • f. Fluorescence was read (excitatory, 360; emission, 460) using the EnVision Multilabel Plate Reader (Perkin Elmer) • g. Endpoint reading was taken for analysis after the development reaches plateau. • V. Data Analysis: The percentages of enzyme activity (relative to DMSO controls) and IC50 values were calculated using the GraphPad Prism 4 program based on a sigmoidal dose-response equation.
(§2) Compounds with indicated doses was tested in the biochemical assays of HDAC1, HDAC2, HDAC3, HDAC4, HDAC5, HDAC6, HDAC7, HDAC8, HDAC9, HDAC10, or HDAC11 enzyme. The incubation time in HDAC1/2 assays are 120 min, and that for other HDACs are 10 min. The curve fit and IC50 values were calculated using the GraphPad Prism 4 program based on a sigmoidal dose-response equation.

Human HDAC2 = molecular target: T2, Human HDAC2 (Homo sapiens, UniProt Q92769); assay: Biochemical HDAC assay, HDAC2; conditions: incubation time 120 min
T2 construct: full-length with a C-terminal His-tag; His-tag (C); made in house
Method: Human HDAC2 (GenBank Accession No. NM_001527), full-length with a C-terminal His-tag, MW=56 kDa, was expressed in a baculovirus expression system.
as §1, §2

Human HDAC1 = molecular target: T3, Human HDAC1 (Homo sapiens, UniProt Q13547); assay: Biochemical HDAC assay, HDAC1; conditions: incubation time 120 min
T3 construct: full-length with a C-terminal His-tag and a C-terminal FLAG-tag; His-tag (C); FLAG-tag (C); made in house
Method: Human HDAC1 (GenBank Accession No. NM_004964), full-length with a C-terminal His-tag and a C-terminal FLAG-tag, MW=56 kDa, was expressed in a baculovirus expression system.
as §1, §2

T2 sequence (Q92769 whole entry): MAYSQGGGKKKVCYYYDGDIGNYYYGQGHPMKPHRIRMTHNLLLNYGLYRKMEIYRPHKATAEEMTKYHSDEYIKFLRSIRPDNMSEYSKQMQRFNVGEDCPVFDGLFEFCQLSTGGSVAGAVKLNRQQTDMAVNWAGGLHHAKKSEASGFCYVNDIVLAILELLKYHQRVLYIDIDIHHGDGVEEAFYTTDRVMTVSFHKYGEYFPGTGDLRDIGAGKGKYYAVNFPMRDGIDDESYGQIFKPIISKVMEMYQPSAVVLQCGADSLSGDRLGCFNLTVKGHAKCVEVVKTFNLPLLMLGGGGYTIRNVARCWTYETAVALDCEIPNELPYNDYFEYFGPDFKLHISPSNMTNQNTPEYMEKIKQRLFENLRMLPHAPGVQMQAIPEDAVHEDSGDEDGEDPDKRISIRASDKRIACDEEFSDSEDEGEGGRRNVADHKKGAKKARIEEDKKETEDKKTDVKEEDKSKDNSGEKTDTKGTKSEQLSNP
T3 sequence (Q13547 whole entry): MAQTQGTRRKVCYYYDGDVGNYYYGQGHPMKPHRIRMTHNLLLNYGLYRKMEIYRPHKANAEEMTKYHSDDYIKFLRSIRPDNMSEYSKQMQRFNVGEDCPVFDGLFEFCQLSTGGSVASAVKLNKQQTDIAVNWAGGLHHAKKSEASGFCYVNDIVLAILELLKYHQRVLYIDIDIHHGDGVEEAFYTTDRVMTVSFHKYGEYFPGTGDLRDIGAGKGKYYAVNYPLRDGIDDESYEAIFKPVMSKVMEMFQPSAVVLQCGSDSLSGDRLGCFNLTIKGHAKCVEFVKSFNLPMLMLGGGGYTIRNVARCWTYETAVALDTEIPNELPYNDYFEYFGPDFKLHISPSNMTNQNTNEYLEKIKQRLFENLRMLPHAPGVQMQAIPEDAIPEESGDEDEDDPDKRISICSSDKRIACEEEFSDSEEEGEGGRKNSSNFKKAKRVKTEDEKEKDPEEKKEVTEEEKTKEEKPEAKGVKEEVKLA

Nc1ccc(-c2cccs2)cc1NC(=O)c1ccc2c(c1)CCC(=O)N2 [Example 5, N-(2-amino-5-(thiophen-2-yl)phenyl)-2-oxo-1,2,3,4-tetrahydroquinoline-6-carboxamide]
IC50 (Recombinant human HDAC6): > 10000 nM
IC50 (Human HDAC2): 34 nM
IC50 (Human HDAC1): 2.5 nM
